# Biological target: Gag-Pol polyprotein (Human immunodeficiency virus type 1 group M subtype B (isolate HXB2), UniProt P04585)
# Assay: HIV-1 RT RNase H inhibitor potency, dose response, biochemical, probe assessment (AID 652)
# Details: pH 8; 23 °C
row,SMILES,IC50 [µM]
1,"CSc1ccc(C2c3ccc(=O)c4c(C)oc(C)c4c3OC(=N)C2C#N)cc1 (configuration not stated) [2-amino-7-keto-8,10-dimethyl-4-[4-(methylthio)phenyl]-4H-furo[1,2]cyclohepta[4,6-d]pyran-3-carbonitrile]",5.81
2,COc1ccccc1/N=c1\oc2c(OC)cccc2cc1C(=O)NCc1ccco1 [8-Methoxy-2-[(Z)-2-methoxy-phenylimino]-2H-chromene-3-carboxylic acid (furan-2-ylmethyl)-amide],3.13
3,CC1CCN(S(=O)(=O)c2ccc(NC(=O)Cn3nnc(-c4ccccc4)n3)cc2)CC1 [MLS000032813],22
4,"c1ccc(N2CCN(c3nc4cc5c(cc4s3)OCO5)CC2)cc1 [6-(4-phenyl-1-piperazinyl)-[1,3]dioxolo[4,5-f][1,3]benzothiazole]",3.21
5,"C=CCc1c(C)nc(S)c(C#N)c1C [4,6-dimethyl-5-prop-2-enyl-2-sulfanylidene-1H-pyridine-3-carbonitrile]",7.25
6,"Cc1cccc(OCC(=O)Nc2cccc(-c3nnc(-c4ccccc4)o3)c2)c1C [2-(2,3-dimethylphenoxy)-N-[3-(5-phenyl-1,3,4-oxadiazol-2-yl)phenyl]acetamide]",3.92
7,"CN(C)c1ccc2c(c1)N=C(c1ccco1)OP2(=S)N1CCOCC1 (configuration not stated) [3-(2-furanyl)-N,N-dimethyl-1-(4-morpholinyl)-1-sulfanylidene-2,4,1-benzoxazaphosphorin-6-amine]",1.66
8,CCCCCCNC(=O)c1c(N)n(N=Cc2ccco2)c2nc3ccccc3nc12 [SMR000042381],2.77
9,"C=CCOC(=O)C1=C(C)N=C(SCC(=O)Nc2ccc(C)c(Cl)c2)C(C#N)C1c1ccco1 (configuration not stated) [prop-2-enyl 6-[2-(3-chloro-4-methylanilino)-2-oxoethyl]sulfanyl-5-cyano-4-(furan-2-yl)-2-methyl-1,4-dihydropyridine-3-carboxylate]",4.25
10,O=S(=O)(c1ccc(S(=O)(=O)N2CCN(C/C=C/c3ccccc3)CC2)cc1)N1CCCC1 [1-[(E)-3-phenylprop-2-enyl]-4-(4-pyrrolidin-1-ylsulfonylphenyl)sulfonyl-piperazine],12.2
11,COc1cc(C(=O)Nc2oc(-c3ccccc3)c(-c3ccccc3)c2C#N)cc(OC)c1OC [MLS000051579],6.05
12,"CCOC(=O)c1sc(NC(=O)CSc2nnc(Cc3ccccc3)o2)c(C#N)c1C [4-cyano-3-methyl-5-[[1-oxo-2-[[5-(phenylmethyl)-1,3,4-oxadiazol-2-yl]thio]ethyl]amino]-2-thiophenecarboxylic acid ethyl ester]",0.094
13,"Cc1ccc(-n2c(N)c(C(N)=O)sc2=S)cc1 [4-amino-3-(4-methylphenyl)-2-sulfanylidene-1,3-thiazole-5-carboxamide]",2.58
14,CCCc1cc(C(=O)Nc2sc3c(c2C#N)CCC3)no1 [MLS000116386],2.8
15,CCC1(C)Cc2c(sc3c2c(=O)n(C)c2nnc(SCc4ccc5c(c4)OCO5)n32)CO1 (configuration not stated) [MLS000030507],23
16,"C=CCOc1ccc(CC2C(=O)N(C)C(=O)N(C)C2=O)cc1 [1,3-dimethyl-5-[(4-prop-2-enoxyphenyl)methyl]-1,3-diazinane-2,4,6-trione]",2.61
17,"Cc1ccc(NC(=O)Cn2nnc(C(=O)Nc3ccc(C)c(C)c3)c2N)cc1 [5-amino-N-(3,4-dimethylphenyl)-1-[2-(4-methylanilino)-2-oxoethyl]-4-triazolecarboxamide]",16.4
18,CC1=C(SCCC#N)S/C(=C2\SC(C)=C(SCCC#N)S2)S1 [SMR000011057],2.8
19,CC(=O)c1cccc(NC(=O)c2cc(-c3ccc(C)cc3)on2)c1 [MLS000050755],13.3
20,COC(=O)c1ccccc1NC(=O)c1sc(=S)n(C)c1N [2-[(4-amino-3-methyl-2-thioxo-4-thiazoline-5-carbonyl)amino]benzoic acid methyl ester],4.43
21,"Cc1nn2c(-c3cccc(NC(=O)CSc4nc5ccccc5o4)c3)nnc2c2ccccc12 [2-(1,3-benzoxazol-2-ylsulfanyl)-N-[3-(6-methyl-[1,2,4]triazolo[3,4-a]phthalazin-3-yl)phenyl]acetamide]",3.71
22,S=c1[nH]c(C2CC2)nc2ccccc12 [SMR000075851],2.06
23,"Cc1cc(C(=O)CSc2nnc(-c3ccc(OC(F)F)cc3)o2)c(C)n1Cc1cccs1 [2-[[5-[4-(difluoromethoxy)phenyl]-1,3,4-oxadiazol-2-yl]sulfanyl]-1-[2,5-dimethyl-1-(thiophen-2-ylmethyl)pyrrol-3-yl]ethanone]",1.88
24,COC(=O)N(c1ccc(OC)cc1)P1(=S)OCCC(C)O1 (configuration not stated) [MLS000043492],1.02
25,"C=CCn1c(SCC(=O)NC(=O)NCc2ccco2)nc2sc(C)c(C)c2c1=O [2-(5,6-dimethyl-4-oxidanylidene-3-prop-2-enyl-thieno[2,3-d]pyrimidin-2-yl)sulfanyl-N-(furan-2-ylmethylcarbamoyl)ethanamide]",19
26,"Cc1cc(C)c2c(=O)n(CC(=O)NCCCN3CCOCC3)sc2n1 [2-(3-keto-4,6-dimethyl-isothiazolo[5,4-b]pyridin-2-yl)-N-(3-morpholinopropyl)acetamide]",9.4

row,SMILES,IC50 [µM]
1,Cc1sc(-n2c(C)cc(C=Nn3cnnc3)c2C)c(C#N)c1C,2.22
2,"COc1ccc(-c2nsc(SCC(=O)Nc3cc(C)on3)n2)cc1 [2-[[3-(4-methoxyphenyl)-1,2,4-thiadiazol-5-yl]sulfanyl]-N-(5-methyl-1,2-oxazol-3-yl)acetamide]",3.01
3,"Nc1sc2c(c1C(=O)NC1CCS(=O)(=O)C1)CCC2 (configuration not stated) [2-Amino-5,6-dihydro-4H-cyclopenta[b]thiophene-3-carboxylic acid (1,1-dioxo-tetrahydro-1lambda*6*-thiophen-3-yl)-amide]",26.8
4,CC(C)Sc1nc2sc3c(c2c2nnc(SCC(=O)NCc4ccco4)n12)CCCC3 [MLS000082957],3.01
5,"O=c1[nH]c(=O)n(-c2ccc(F)cc2)c(O)c1C=Nc1ccccc1N1CCCC1 [(5E)-1-(4-fluorophenyl)-5-[[2-(1-pyrrolidinyl)anilino]methylidene]-1,3-diazinane-2,4,6-trione]",23.1
6,COc1cccc(OC)c1-c1nn2c(-c3cc(-c4ccccc4)n[nH]3)nnc2s1 [MLS000083027],3.81
7,"N#Cc1c(SCC(=O)Nc2nccs2)nc2c(c1-c1ccco1)CCCC2 [2-[[3-cyano-4-(2-furanyl)-5,6,7,8-tetrahydroquinolin-2-yl]thio]-N-(2-thiazolyl)acetamide]",4.3
8,"COc1ccc(C2c3c(oc4ccc(Cl)cc4c3=O)C(=O)N2Cc2ccco2)cc1OC (configuration not stated) [7-chloranyl-1-(3,4-dimethoxyphenyl)-2-(furan-2-ylmethyl)-1H-chromeno[2,3-c]pyrrole-3,9-dione]",13.5
9,"Cc1sc2nc(SCC(=O)NCc3ccco3)n(CCc3ccccc3)c(=O)c2c1C [2-(5,6-Dimethyl-4-oxo-3-phenethyl-3,4-dihydro-thieno[2,3-d]pyrimidin-2-ylsulfanyl)-N-furan-2-ylmethyl-acetamide]",3.86
10,Cc1cccc(-n2c(N)c(C(=O)N3CCN(C)CC3)sc2=S)c1 [MLS000056753],45.1
11,"O=C1CC(c2ccco2)Cc2nc(Nc3nc(-c4ccccc4)c4ccccc4n3)ncc21 (configuration not stated) [7-(2-furanyl)-2-[(4-phenyl-2-quinazolinyl)amino]-7,8-dihydro-6H-quinazolin-5-one]",13.7
12,"c1cncc(-c2nn3c(Cn4cnc5ccccc54)nnc3s2)c1 [1-{[6-(3-pyridinyl)[1,2,4]triazolo[3,4-b][1,3,4]thiadiazol-3-yl]methyl}-1H-benzimidazole]",0.621
13,"O=C(O)c1cc(S(=O)(=O)Nc2ccc3oc(=O)sc3c2)ccc1O [2-hydroxy-5-[(2-keto-1,3-benzoxathiol-5-yl)sulfamoyl]benzoic acid]",7.39
14,"CCN(Cc1ccccc1)S(=O)(=O)c1ccc(C(=O)Nc2nnc(-c3ccccc3OC)o2)cc1 [4-[benzyl(ethyl)sulfamoyl]-N-[5-(2-methoxyphenyl)-1,3,4-oxadiazol-2-yl]benzamide]",8.96
15,"O=C(O)/C=C/c1ccc(O)c(O)c1 [3,4-Dihydroxycinnamate, XVII]",> 50
16,"CCn1cc(C(=O)NCc2ccco2)c(=O)c2cc(S(=O)(=O)N3CCc4ccccc4C3)ccc21 [6-(3,4-dihydro-1H-isoquinolin-2-ylsulfonyl)-1-ethyl-N-(2-furanylmethyl)-4-oxo-3-quinolinecarboxamide]",9.32
17,"CCOC(=O)c1c(NC(=O)c2cc(C3CC3)on2)sc2c1CCCC2 [2-[(5-cyclopropylisoxazole-3-carbonyl)amino]-4,5,6,7-tetrahydrobenzothiophene-3-carboxylic acid ethyl ester]",1.7
18,COc1ccc(N2CSC3=C(C#N)C(c4cc(OC)c(OC)cc4OC)CC(=O)N3C2)c(OC)c1 (configuration not stated) [MLS000117261],11.9
19,"COc1cc(-c2nnc3sc(Cc4ccc(Cl)cc4)nn23)cc(OC)c1OC [6-(4-chlorobenzyl)-3-(3,4,5-trimethoxyphenyl)-[1,2,4]triazolo[3,4-b][1,3,4]thiadiazole]",1.08
20,"CCOc1cc(C2CC(=O)N3CN(C4CCCCC4)CSC3=C2C#N)ccc1O (configuration not stated) [3-cyclohexyl-8-(3-ethoxy-4-hydroxy-phenyl)-6-keto-2,4,7,8-tetrahydropyrido[2,1-b][1,3,5]thiadiazine-9-carbonitrile]",19.5
21,"O=c1c(O)c(-c2ccc(O)cc2O)oc2cc(O)cc(O)c12 [2-(2,4-dihydroxyphenyl)-3,5,7-trihydroxychromen-4-one]",2.11
22,CCCCC(CC)Cn1c2nc3ccccc3nc2c2c(=N)oc(C)nc21 (configuration not stated) [MLS000098038],2.33
23,"Cc1cc(C)c(C#N)c(=N)o1 [2-azanylidene-4,6-dimethyl-pyran-3-carbonitrile]",0.298
24,"Nc1ccc(-c2nnc(-c3ccc(-c4ccccc4)cc3)o2)cc1 [4-[5-(4-phenylphenyl)-1,3,4-oxadiazol-2-yl]aniline]",2.71
25,"CC(C)CN(C(=O)COC(=O)c1ccc2c(c1)NC(=O)CS2)C1CCS(=O)(=O)C1 (configuration not stated) [3-keto-4H-1,4-benzothiazine-6-carboxylic acid [2-[(1,1-diketothiolan-3-yl)-isobutyl-amino]-2-keto-ethyl] ester]",30.3
26,"N#Cc1c(NC(=O)c2ccc(Cn3cc(Br)cn3)o2)sc2c1CCCCCC2 [5-[(4-bromanylpyrazol-1-yl)methyl]-N-(3-cyano-4,5,6,7,8,9-hexahydrocycloocta[b]thiophen-2-yl)furan-2-carboxamide]",1.38
